“And” between values parts separate entries of the source, which are not always exact repeats. Equal entries are not always repeated. Inconclusive results and toxic doses are left out.
System: BDF1 mice, P388 leukemia ip, median survival T/C
Assay: NCI In Vivo Anticancer Drug Screen. Data for tumor model P388 Leukemia (intraperitoneal) in B6D2F1 (BDF1) mice
Settings: endpoint: median survival time, higher = longer survival
Summary of the method: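 Compound-treated tumour-bearing mice were compared with vehicle-treated controls. Survival was recorded, and the value is the treated-group measurement divided by the control-group measurement (T/C).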

[1] = dose: 12.5 mg/kg/injection, schedule: Q01DX009 (ip), vehicle: saline with Tween-80
[2] = dose: 25.0 mg/kg/injection, schedule: Q01DX009 (ip), vehicle: saline with Tween-80
[3] = dose: 50.0 mg/kg/injection, schedule: Q01DX009 (ip), vehicle: saline with Tween-80
[4] = dose: 100.0 mg/kg/injection, schedule: Q04DX003 (ip), vehicle: saline with Tween-80
[5] = dose: 200.0 mg/kg/injection, schedule: Q04DX003 (ip), vehicle: saline with Tween-80
[6] = dose: 400.0 mg/kg/injection, schedule: Q04DX003 (ip), vehicle: saline with Tween-80
[7] = dose: 100.0 mg/kg/injection, schedule: Q01DX009 (ip), vehicle: saline with Tween-80
[8] = dose: 100.0 mg/kg/injection, schedule: Q04DX003 (ip), vehicle: saline
[9] = dose: 200.0 mg/kg/injection, schedule: Q01DX009 (ip), vehicle: saline with Tween-80
[10] = dose: 200.0 mg/kg/injection, schedule: Q04DX003 (ip), vehicle: saline
[11] = dose: 400.0 mg/kg/injection, schedule: Q04DX003 (ip), vehicle: saline
[12] = dose: 100.0 mg/kg/injection, schedule: Q01DX009 (ip), vehicle: Klucel (hydroxypropylcellulose) (HPC)
[13] = dose: 200.0 mg/kg/injection, schedule: Q01DX009 (ip), vehicle: Klucel (hydroxypropylcellulose) (HPC)

Structure (SMILES): COc1cc2cc3c4ccc(OC)c(OC)c4cc[n+]3c(C)c2cc1OC (tested in a mixture with another compound)
- T/C (dose: 20.0 mg/kg/injection, schedule: Q01DX009 (ip), vehicle: saline): 164 % of control
- T/C (dose: 40.0 mg/kg/injection, schedule: Q01DX009 (ip), vehicle: saline): 150 % of control and 156 % of control
- T/C (dose: 80.0 mg/kg/injection, schedule: Q01DX009 (ip), vehicle: saline): 168 % of control and 172 % of control
- T/C (dose: 120.0 mg/kg/injection, schedule: Q01DX009 (ip), vehicle: saline): 172 % of control and 185 % of control

Structure (SMILES): O=C1c2ccccc2C(=O)c2c(Cl)cccc21
- T/C [1]: 113 % of control
- T/C [2]: 100 % of control
- T/C [3]: 100 % of control
- T/C [4]: 95 % of control
- T/C [5]: 100 % of control
- T/C [6]: 95 % of control

Structure (SMILES): CCOC(=O)NC(C)(C)CN(C(=O)OCC)c1ccccc1
- T/C (dose: 44.0 mg/kg/injection, schedule: Q04DX003 (ip), vehicle: saline with Tween-80): 95 % of control
- T/C (dose: 66.0 mg/kg/injection, schedule: Q04DX003 (ip), vehicle: saline with Tween-80): 104 % of control
- T/C [4]: 90 % of control
- T/C (dose: 150.0 mg/kg/injection, schedule: Q04DX003 (ip), vehicle: saline with Tween-80): 95 % of control

Structure (SMILES): C=C(C)C12OC3(c4ccccc4)OC1C1C4OC4(CO)C(O)C4(O)C(=O)C(C)=CC4C1(O3)C(C)C2OC(=O)/C=C/C=C/c1ccccc1 (stereo not given)
- T/C (dose: 0.01 mg/kg/injection, schedule: Q01DX009 (ip), vehicle: saline + alcohol): 115 % of control
- T/C (dose: 0.02 mg/kg/injection, schedule: Q01DX009 (ip), vehicle: saline + alcohol): 94 % of control
- T/C (dose: 0.03 mg/kg/injection, schedule: Q01DX009 (ip), vehicle: saline + alcohol): 123 % of control
- T/C (dose: 0.5 mg/kg/injection, schedule: Q01DX009 (ip), vehicle: saline + alcohol): 156 % of control
- T/C (dose: 3.1 micrograms/kg/injection, schedule: Q01DX009 (ip), vehicle: saline + alcohol): 123 % of control
- T/C (dose: 6.0 micrograms/kg/injection, schedule: Q01DX009 (ip), vehicle: saline + alcohol): 101 % of control
- T/C (dose: 6.3 micrograms/kg/injection, schedule: Q01DX009 (ip), vehicle: saline + alcohol): 104 % of control
- T/C (dose: 12.5 micrograms/kg/injection, schedule: Q01DX009 (ip), vehicle: saline + alcohol): 123 % of control
- T/C (dose: 25.0 micrograms/kg/injection, schedule: Q01DX009 (ip), vehicle: gum acacia): 121 % of control
- T/C (dose: 25.0 micrograms/kg/injection, schedule: Q01DX009 (ip), vehicle: saline + alcohol): 124 % of control
- T/C (dose: 25.0 micrograms/kg/injection, schedule: Q01DX009 (ip), vehicle: saline with Tween-80): 200 % of control
- T/C (dose: 50.0 micrograms/kg/injection, schedule: Q01DX009 (ip), vehicle: gum acacia): 90 % of control
- T/C (dose: 50.0 micrograms/kg/injection, schedule: Q01DX009 (ip), vehicle: saline + alcohol): 155 % of control
- T/C (dose: 50.0 micrograms/kg/injection, schedule: Q01DX009 (ip), vehicle: saline with Tween-80): 92 % of control
- T/C (dose: 100.0 micrograms/kg/injection, schedule: Q01DX009 (ip), vehicle: saline with Tween-80): 88 % of control

Structure (SMILES): CC1CSCC(C)O1 (stereo not given)
- T/C [3]: 90 % of control
- T/C [7]: 100 % of control
- T/C [8]: 100 % of control
- T/C [9]: 104 % of control
- T/C [10]: 100 % of control
- T/C [11]: 104 % of control

Structure (SMILES): O=C1OC(C(O)CO)C(O)=C1O (stereo not given)
- T/C (dose: 0.01 mg/kg/injection, schedule: Q01DX009 (ip), vehicle: saline): 105 % of control and 109 % of control
- T/C (dose: 0.03 mg/kg/injection, schedule: Q01DX009 (ip), vehicle: saline): 91 % of control and 100 % of control and 118 % of control
- T/C (dose: 0.06 mg/kg/injection, schedule: Q01DX009 (ip), vehicle: saline): 97 % of control and 100 % of control and 113 % of control
- T/C (dose: 0.24 mg/kg/injection, schedule: Q01DX009 (ip), vehicle: saline): 102 % of control
- T/C (dose: 0.25 mg/kg/injection, schedule: Q01DX009 (ip), vehicle: saline): 90 % of control and 110 % of control
- T/C (dose: 0.5 mg/kg/injection, schedule: Q01DX009 (ip), vehicle: saline): 95 % of control and 105 % of control
- T/C (dose: 1.0 mg/kg/injection, schedule: Q01DX001 (ip), vehicle: saline): 100 % of control
- T/C (dose: 1.0 mg/kg/injection, schedule: Q01DX009 (ip), vehicle: saline): 90 % of control and 95 % of control
- T/C (dose: 2.0 mg/kg/injection, schedule: Q01DX001 (ip), vehicle: saline): 100 % of control
- T/C (dose: 2.0 mg/kg/injection, schedule: Q01DX009 (ip), vehicle: saline): 95 % of control
- T/C (dose: 4.0 mg/kg/injection, schedule: Q01DX001 (ip), vehicle: saline): 105 % of control
- T/C (dose: 4.0 mg/kg/injection, schedule: Q01DX009 (ip), vehicle: saline): 90 % of control
- T/C (dose: 8.0 mg/kg/injection, schedule: Q01DX009 (ip), vehicle: saline): 100 % of control
- T/C (dose: 16.0 mg/kg/injection, schedule: Q01DX001 (ip), vehicle: saline): 105 % of control
- T/C (dose: 16.0 mg/kg/injection, schedule: Q01DX009 (ip), vehicle: saline): 100 % of control
- T/C (dose: 32.0 mg/kg/injection, schedule: Q01DX001 (ip), vehicle: saline): 100 % of control
- T/C (dose: 32.0 mg/kg/injection, schedule: Q01DX009 (ip), vehicle: saline): 90 % of control
- T/C (dose: 64.0 mg/kg/injection, schedule: Q01DX001 (ip), vehicle: saline): 95 % of control
- T/C (dose: 100.0 mg/kg/injection, schedule: Q01DX009 (ip), vehicle: saline): 100 % of control
- T/C [8]: 95 % of control
- T/C (dose: 200.0 mg/kg/injection, schedule: Q01DX009 (ip), vehicle: saline): 105 % of control
- T/C [10]: 95 % of control
- T/C [11]: 95 % of control

Structure (SMILES): CCCn1cnc2c(SCc3ccccc3Cl)nc(N)nc21
- T/C [12]: 90 % of control
- T/C (dose: 100.0 mg/kg/injection, schedule: Q04DX003 (ip), vehicle: other): 100 % of control
- T/C [13]: 95 % of control
- T/C (dose: 200.0 mg/kg/injection, schedule: Q04DX003 (ip), vehicle: other): 95 % of control
- T/C (dose: 400.0 mg/kg/injection, schedule: Q04DX003 (ip), vehicle: other): 104 % of control

Structure (SMILES): Cc1ccc(C2(C#N)CCCCC2)cc1
- T/C (dose: 66.0 mg/kg/injection, schedule: Q01DX009 (ip), vehicle: saline with Tween-80): 116 % of control
- T/C [7]: 120 % of control
- T/C [4]: 100 % of control
- T/C (dose: 150.0 mg/kg/injection, schedule: Q01DX009 (ip), vehicle: saline with Tween-80): 112 % of control
- T/C [9]: 108 % of control
- T/C [5]: 108 % of control
- T/C (dose: 400.0 mg/kg/injection, schedule: Q01DX009 (ip), vehicle: saline with Tween-80): 116 % of control
- T/C [6]: 112 % of control

Structure (SMILES): O=[N+]([O-])c1ccc(/C=C/C=C/c2ccc(Cl)cc2Cl)cc1
- T/C (dose: 50.0 mg/kg/injection, schedule: Q01DX009 (ip), vehicle: Klucel (hydroxypropylcellulose) (HPC)): 104 % of control
- T/C [12]: 113 % of control
- T/C (dose: 100.0 mg/kg/injection, schedule: Q04DX003 (ip), vehicle: Klucel (hydroxypropylcellulose) (HPC)): 104 % of control
- T/C [13]: 90 % of control
- T/C (dose: 200.0 mg/kg/injection, schedule: Q04DX003 (ip), vehicle: Klucel (hydroxypropylcellulose) (HPC)): 95 % of control
- T/C (dose: 400.0 mg/kg/injection, schedule: Q04DX003 (ip), vehicle: Klucel (hydroxypropylcellulose) (HPC)): 91 % of control

Structure (SMILES): CCCCCCCCCCCCCC[N+](C)(C)CC(=O)O
- T/C [1]: 103 % of control
- T/C [2]: 106 % of control
- T/C [3]: 113 % of control

Source: PubChem BioAssay AID328 (DTP/NCI, 2004)
